# In article PMC11678425, “(-)-Syringaresinol Exerts an Antidepressant-like Activity in Mice by Noncompetitive Inhibition of the Serotonin Transporter” (Pharmaceuticals, 2024):
# Key:
# hSERT P499G = target: T1, hSERT P499G (Homo sapiens, UniProt P31645, P499G); assay: APP^+ uptake, hSERT P499G; type: cell-based; conditions: S2 site mutant, read-out: SYR IC50 for Transport
# T1 construct: forward and reverse primers were used to amplify a full-length hSERT; expressed in transfected cells; host or cells: HeLa cells, transient, pcDNA3.1
# hSERT E493N = target: T2, hSERT E493N (Homo sapiens, UniProt P31645, E493N); assay: ASP^+ binding, hSERT E493N; conditions: S2 site mutant, read-out: SYR IC50 for Binding
# T2 construct: forward and reverse primers were used to amplify a full-length hSERT; expressed in transfected cells; host or cells: HeLa cells, transient, pcDNA3.1
# hSERT S2 mutants = assay: APP^+ uptake or ASP^+ binding, all S2 mutants compared with WT; type: cell-based, human; conditions: all S2 mutants tested
# Experimental: HeLa cells were cultured in Dulbecco’s Modified Eagle’s Medium supplemented with 10% fetal bovine serum, 100 units/mL penicillin, and 100 μg/mL streptomycin at 37 °C in a humidified 5% CO2 incubator. Cells grown at ~70% confluence in a 6 cm culture dish were transfected with hSERT cDNA in pcDNA3.1 by lipofectamine 2000. Transfected cells were incubated for 12 h at 37 °C with 5% CO2 and then transferred into 96-well plates. After being grown for an additional 12–16 h, the cells were then assayed for APP^+ uptake or ASP^+ binding.
# Measurement of transport or ligand binding activity of SERT was performed by using its fluorescent substrate (APP^+) or ligand (ASP^+), respectively. The cells transiently expressing WT or mutants of hSERT were applied for various treatments. […] APP^+ uptake was measured by adding 100 μL KRH buffer containing 2 μM APP^+ and incubating for 5 min at 22 °C. […] The extent of APP^+ accumulated in the cells was determined by fluorescence spectrometry with an Infinite 200 Pro microplate reader (Tecan, Männedorf, Switzerland).
# ASP^+ binding to SERT expressed on the cell surface was measured with digitonin-permeabilized cells as described previously. […] After removing excess ASP^+ by 3× rapid washing, ASP^+ fluorescence retained in the cell membrane was determined by fluorescence spectrometry. […]
# CUMS mice = assay: Tail suspension test (TST) in CUMS mice; type: in vivo, mouse
# Experimental: C57BL/6 adult (6–8 weeks, body weight, 18–22 g) male mice were maintained and handled in a standard condition at the Experimental Animal Center of Southern Medical University (Guangzhou, China). Animal use was approved by the Animal Use and Care Committee of Southern Medical University (approved code: SMUL2021177, approved date: 12 December 2021). The CUMS procedure was carried out according to a protocol described previously. Except for those in the control group, mice were randomly exposed to two mild unpredictable stressors per day for 3 weeks. The stressors included water deprivation, restraint, tilted cage, wet/no bedding, rotation, peppermint, noise, and inverted light off/on. Mice in the control group were group housed without any stressors throughout the procedure. […] NSFT was performed after 16 h food deprivation, as described previously. The mouse was placed in an open field (24 × 40 × 14 cm), where a new chow was put in the center, and the latency time to bite food was counted over 10 min. Home cage feeding within a 20 min period was measured after the test. FST was carried out according to a protocol described previously. The mouse was placed into a beaker (Bomex, Beijing, China) with a height of 18 cm filled with water (22 ± 1 °C) for 6 min. The immobile time was measured during minutes 2–6. TST was performed according to a previous description. The mouse was suspended from a hook that hung from a suspension bar by placing a piece of adhesive tape on its tail about 1 cm away from the tip. The immobile time during minutes 2–6 was measured.
# hSERT F556A = target: T3, hSERT F556A (Homo sapiens, UniProt P31645, F556A); assay: APP^+ uptake, hSERT F556A; type: cell-based; conditions: S2 site mutant, read-out: SYR IC50 for Transport
# T3 construct: forward and reverse primers were used to amplify a full-length hSERT; expressed in transfected cells; host or cells: HeLa cells, transient, pcDNA3.1
# c-Fos = c-Fos immunohistochemistry in mPFC of CUMS mice; type: in vivo, mouse; conditions: 10 mg/kg i.p.
# Experimental: Figure 7 SYR effects on the expression of c-Fos and synaptic proteins in mPFC. (A) Representative immunohistochemical images of c-Fos expression in mPFC under the indicated treatments. Immunohistochemistry of c-Fos was performed with mPFC slices as described in Section 4. The slices were re-probed with anti-DAPI antibody. Immunofluorescence images for c-Fos (green) and DAPI (blue) were acquired by confocal microscopy. (B) Quantitative analysis for c-Fos expression in mPFC with various treatments. Protein expression is expressed as a percentage of c-Fos fluorescence measured in the control group. Bars represent the mean ± SEM (n = 4). * p < 0.05, ** p < 0.01 compared with the control or CUMS group by one-way ANOVA followed by post hoc tests, respectively. (C) Representative immunoblots of the synaptic proteins BDNF, PSD-95, GluA1, and vGluT1 with various treatments. (D–G) Quantification of the expression of the synaptic proteins BDNF (D), PSD-95 (E), GluA1 (F), and vGluT1 (G). The expression level is expressed as a percentage of the integrated density obtained from the control group. Bars represent the mean ± SEM (n = 4). * p < 0.05, ** p < 0.01 by one-way ANOVA followed by post hoc tests.
# Mouse mPFC and hippocampal slices were prepared as previously described. […]
# hSERT T497A = target: T4, hSERT T497A (Homo sapiens, UniProt P31645, T497A); assay: ASP^+ binding, hSERT T497A; conditions: S2 site mutant, read-out: SYR IC50 for Binding
# T4 construct: forward and reverse primers were used to amplify a full-length hSERT; expressed in transfected cells; host or cells: HeLa cells, transient, pcDNA3.1
# T4 sequence (P31645 whole entry T497A): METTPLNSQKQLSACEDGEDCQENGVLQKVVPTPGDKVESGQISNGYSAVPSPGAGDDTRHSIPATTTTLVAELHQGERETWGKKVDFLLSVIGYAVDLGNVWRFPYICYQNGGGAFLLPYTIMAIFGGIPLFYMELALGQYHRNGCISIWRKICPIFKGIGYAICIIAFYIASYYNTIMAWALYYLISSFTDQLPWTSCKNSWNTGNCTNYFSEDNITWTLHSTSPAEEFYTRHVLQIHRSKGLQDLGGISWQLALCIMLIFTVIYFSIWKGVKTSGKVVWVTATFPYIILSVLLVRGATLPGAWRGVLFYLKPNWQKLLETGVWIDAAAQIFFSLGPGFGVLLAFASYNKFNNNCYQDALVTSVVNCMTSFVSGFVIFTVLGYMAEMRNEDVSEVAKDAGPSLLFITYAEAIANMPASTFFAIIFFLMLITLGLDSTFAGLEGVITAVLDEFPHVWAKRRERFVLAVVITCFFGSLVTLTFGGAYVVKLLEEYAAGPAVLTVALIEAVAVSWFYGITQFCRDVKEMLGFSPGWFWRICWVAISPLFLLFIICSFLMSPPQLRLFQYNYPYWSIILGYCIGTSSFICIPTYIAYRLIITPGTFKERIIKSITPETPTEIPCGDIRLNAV
# T1 sequence (P31645 whole entry P499G): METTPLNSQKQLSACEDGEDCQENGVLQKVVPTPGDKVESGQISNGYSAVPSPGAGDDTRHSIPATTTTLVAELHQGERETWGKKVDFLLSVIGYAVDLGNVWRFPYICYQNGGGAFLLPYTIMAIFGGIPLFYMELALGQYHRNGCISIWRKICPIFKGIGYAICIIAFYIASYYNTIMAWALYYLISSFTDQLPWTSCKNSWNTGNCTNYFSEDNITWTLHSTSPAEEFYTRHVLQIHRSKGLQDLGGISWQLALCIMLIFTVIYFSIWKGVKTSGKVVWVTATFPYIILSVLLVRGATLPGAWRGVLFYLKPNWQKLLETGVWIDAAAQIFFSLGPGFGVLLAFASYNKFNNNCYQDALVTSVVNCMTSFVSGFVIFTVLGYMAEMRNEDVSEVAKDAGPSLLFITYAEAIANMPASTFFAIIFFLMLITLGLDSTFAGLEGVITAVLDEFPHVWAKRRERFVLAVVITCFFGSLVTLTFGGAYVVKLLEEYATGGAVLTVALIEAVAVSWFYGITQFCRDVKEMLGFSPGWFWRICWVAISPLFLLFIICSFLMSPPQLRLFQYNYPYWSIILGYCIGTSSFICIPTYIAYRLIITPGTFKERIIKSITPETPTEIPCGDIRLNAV
# T2 sequence (P31645 whole entry E493N): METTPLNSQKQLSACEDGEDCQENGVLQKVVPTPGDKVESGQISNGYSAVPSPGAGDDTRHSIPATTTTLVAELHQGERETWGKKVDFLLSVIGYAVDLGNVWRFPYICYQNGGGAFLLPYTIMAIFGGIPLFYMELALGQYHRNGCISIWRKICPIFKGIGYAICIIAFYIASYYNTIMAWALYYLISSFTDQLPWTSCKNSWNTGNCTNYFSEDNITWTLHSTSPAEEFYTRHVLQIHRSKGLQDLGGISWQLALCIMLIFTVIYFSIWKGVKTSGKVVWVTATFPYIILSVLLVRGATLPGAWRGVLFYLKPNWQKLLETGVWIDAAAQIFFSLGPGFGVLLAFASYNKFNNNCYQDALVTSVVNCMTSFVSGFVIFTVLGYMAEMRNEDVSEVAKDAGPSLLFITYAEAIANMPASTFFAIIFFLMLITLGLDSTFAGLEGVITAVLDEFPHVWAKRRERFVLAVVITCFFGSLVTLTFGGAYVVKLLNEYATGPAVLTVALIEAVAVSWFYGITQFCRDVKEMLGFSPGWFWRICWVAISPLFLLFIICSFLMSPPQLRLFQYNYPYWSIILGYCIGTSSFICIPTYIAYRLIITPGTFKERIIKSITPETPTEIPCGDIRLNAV
# T3 sequence (P31645 whole entry F556A): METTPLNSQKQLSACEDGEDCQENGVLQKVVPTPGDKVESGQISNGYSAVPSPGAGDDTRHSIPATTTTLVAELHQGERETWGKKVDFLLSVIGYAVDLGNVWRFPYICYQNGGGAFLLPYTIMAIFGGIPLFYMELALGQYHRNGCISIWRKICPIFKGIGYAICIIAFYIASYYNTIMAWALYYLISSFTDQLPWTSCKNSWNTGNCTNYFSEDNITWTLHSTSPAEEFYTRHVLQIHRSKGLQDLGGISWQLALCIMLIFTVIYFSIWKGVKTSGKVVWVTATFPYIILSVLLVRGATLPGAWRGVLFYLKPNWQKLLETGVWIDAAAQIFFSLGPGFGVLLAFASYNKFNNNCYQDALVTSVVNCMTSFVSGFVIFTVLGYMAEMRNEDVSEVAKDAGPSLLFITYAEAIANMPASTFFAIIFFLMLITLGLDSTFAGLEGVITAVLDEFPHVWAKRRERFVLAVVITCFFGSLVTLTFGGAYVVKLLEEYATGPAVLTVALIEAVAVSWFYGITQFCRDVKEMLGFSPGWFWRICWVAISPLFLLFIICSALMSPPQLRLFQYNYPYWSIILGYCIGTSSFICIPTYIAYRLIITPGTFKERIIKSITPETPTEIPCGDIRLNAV
smiles,measurement,setting,value
"COc1cc([C@@H]2OC[C@@H]3[C@H]2CO[C@H]3c2cc(OC)c(O)c(OC)c2)cc(OC)c1O [SYR, (-)-syringaresinol]",IC50,hSERT P499G,11 ± 1.43 µM
same,IC50,hSERT E493N,13.5 ± 1.3 µM
same,increase of SYR IC50 for APP^+ uptake or ASP^+ binding compared with WT,hSERT S2 mutants,more than 10 fold
same,CUMS-induced increase in immobility time in TST,"CUMS mice; 5 mg/kg, i.p., once per day day 7 to 21",effectively attenuate
same,effect in TST,CUMS mice; 10 or 20 mg/kg (i.p.),remarkable antidepressant-like effects
same,IC50,hSERT F556A,7.39 ± 1.12 µM
same,CUMS-induced decrease in expression of c-Fos in mPFC,c-Fos,significantly elevated
same,IC50,hSERT T497A,43.7 ± 2.6 µM
